Values after ≈ are worked out from the molar mass of the structure shown. Read-outs that look alike come from different tables or passages of the source.
Legend:
Solubility in PBS = format: physicochemical
Summary of the method: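 Read-out is the HPLC peak area of the supernatant from ultracentrifuged PBS solution, scaled against a 50 μM peptide DMSO injection; value reported as [(PBS area)/(DMSO area)]*50 uM.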

[1] = target: T1, full-length beta-Catenin (Uniprot ID P35222) (Homo sapiens, UniProt P35222); assay: Fluorescence polarization IC50 (beta-catenin / 5FAM-TCF4 10-53 competition); format: binding
T1 construct: 10 nM full-length beta-Catenin (Uniprot ID P35222)
T1 sequence (P35222 1-781): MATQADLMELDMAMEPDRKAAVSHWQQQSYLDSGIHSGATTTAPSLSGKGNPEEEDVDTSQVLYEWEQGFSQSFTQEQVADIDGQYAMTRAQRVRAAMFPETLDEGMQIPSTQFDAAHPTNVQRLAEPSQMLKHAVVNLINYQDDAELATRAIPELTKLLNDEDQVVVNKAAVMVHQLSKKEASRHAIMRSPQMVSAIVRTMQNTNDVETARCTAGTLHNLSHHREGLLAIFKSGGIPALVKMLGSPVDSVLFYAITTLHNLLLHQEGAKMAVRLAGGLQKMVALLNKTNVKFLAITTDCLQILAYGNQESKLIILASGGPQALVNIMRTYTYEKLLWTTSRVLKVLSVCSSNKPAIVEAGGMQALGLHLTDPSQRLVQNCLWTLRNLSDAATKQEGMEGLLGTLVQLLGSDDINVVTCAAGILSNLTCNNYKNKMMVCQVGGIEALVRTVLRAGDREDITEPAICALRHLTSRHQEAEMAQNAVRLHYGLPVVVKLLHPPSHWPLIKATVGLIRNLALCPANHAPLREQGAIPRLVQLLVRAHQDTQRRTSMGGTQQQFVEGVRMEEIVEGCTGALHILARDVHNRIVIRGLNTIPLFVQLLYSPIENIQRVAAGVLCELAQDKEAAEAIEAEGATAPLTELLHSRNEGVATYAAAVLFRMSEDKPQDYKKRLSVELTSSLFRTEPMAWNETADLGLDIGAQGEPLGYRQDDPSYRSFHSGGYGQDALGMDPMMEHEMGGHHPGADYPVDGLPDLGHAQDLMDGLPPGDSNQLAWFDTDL

CHI Log D procedure = format: physicochemical; details: for CHI Log D: pH 7.4; for chromatographic logD: pH 7.4, CHI Log D
[2] = fluorescence polarization, read-out: beta-Catenin FP IC50

Solubility (Solubility in PBS) | IC50 [1, 2] | IC50 ([1]; read-out: FP EC50) | CHI Log D (CHI Log D procedure) | Solubility (Solubility in PBS; Solubility (uM)) | chromatographic logD (CHI Log D procedure) | SMILES
39 µM (≈ 75.7 µg/mL) | 108 nM | 108 nM | 2.07 | – | – | CC[C@H](C)[C@@H]1NC(=O)[C@H](CC(=O)O)NC(=O)[C@]2(CC=CCCCC3(CCCC=CCCCCCC[C@@](C)(C(=O)N[C@@H](Cc4ccccc4)C(=O)N[C@@H](Cc4csc5ccccc45)C(=O)N[C@@H](CCC(N)=O)C(N)=O)NC(=O)[C@H](CCC(N)=O)NC(=O)[C@H](Cc4ccccc4)NC(=O)[C@H](C)NC(=O)[C@H](CCC(N)=O)NC(=O)[C@H](CCC(=O)O)NC(=O)[C@H](CC(=O)O)NC3=O)NC1=O)CCCN2C(C)=O (stereo partly drawn) [I-653, Ac-PL3-Asp-Ile-B5-Asp-Glu-Gln-Ala-Phe-Gln-S8-Phe-BztA-Gln-NH2]
– | 183 nM | – | – | 46 µM (≈ 91.9 µg/mL) | 2.69 | CC[C@H](C)[C@@H]1NC(=O)[C@H](CC(=O)O)NC(=O)[C@]2(CC=CCCCC3(CCCC=CCCCCCC[C@@](C)(C(=O)N[C@@H](Cc4ccccc4)C(=O)N[C@@H](Cc4csc5ccccc45)C(=O)N[C@@H](CCC(N)=O)C(N)=O)NC(=O)[C@H](CCC(N)=O)NC(=O)[C@H](Cc4ccccc4)NC(=O)[C@H](C)NC(=O)[C@H](Cc4c[nH]c5ccccc45)NC(=O)[C@H](CCC(=O)O)NC(=O)[C@H](CC(=O)O)NC3=O)NC1=O)CCCN2C(C)=O (stereo partly drawn) [I-655, Ac-PL3-Asp-Ile-B5-Asp-Glu-Trp-Ala-Phe-Gln-S8-Phe-BztA-Gln-NH2]
40 µM (≈ 77 µg/mL) | 73 nM | 73 nM | 2.736 | – | – | CCCC[C@@H]1NC(=O)[C@H](CCC(=O)O)NC(=O)[C@H](CC(=O)O)NC(=O)C2(CCCC=CCCCCCC[C@@](C)(C(=O)N[C@@H](Cc3ccccc3)C(=O)N[C@@H](Cc3csc4ccccc34)C(=O)N[C@@H](CCC(N)=O)C(N)=O)NC(=O)[C@H](CCC(N)=O)NC(=O)[C@H](Cc3ccccc3)NC(=O)[C@H](C)NC1=O)CCCC=CC[C@]1(CCCN1C(C)=O)C(=O)N[C@@H](CC(=O)O)C(=O)N[C@@H]([C@@H](C)CC)C(=O)N2 (stereo partly drawn) [I-656, Ac-PL3-Asp-Ile-B5-Asp-Glu-nLeu-Ala-Phe-Gln-S8-Phe-BztA-Gln-NH2]
40 µM (≈ 77 µg/mL) | 46 nM | 46 nM | 2.767 | – | – | CCCC[C@@H]1NC(=O)[C@H](CCC(=O)O)NC(=O)[C@H](CC(=O)O)NC(=O)C2(CCCC=CCCCCCC[C@@](C)(C(=O)N[C@@H](Cc3ccccc3)C(=O)N[C@@H](Cc3csc4ccccc34)C(=O)N[C@@H](CCC(N)=O)C(N)=O)NC(=O)[C@H](CCC(N)=O)NC(=O)[C@H](Cc3ccccc3)NC(=O)[C@H](C)NC1=O)CCCC=CC[C@]1(CCCN1C(C)=O)C(=O)N[C@@H](CC(=O)O)C(=O)N[C@@H]([C@@H](C)CC)C(=O)N2 (stereo partly drawn) [I-657, Ac-PL3-Asp-Ile-B5-Asp-Glu-nLeu-Ala-Phe-Gln-S8-Phe-BztA-Gln-NH2]
48 µM (≈ 92.4 µg/mL) | 546 nM | 546 nM | 2.859 | – | – | CC[C@H](C)[C@@H]1NC(=O)[C@H](CC(=O)O)NC(=O)[C@]2(CC=CCCCC3(CCCC=CCCCCCC[C@@](C)(C(=O)N[C@@H](Cc4ccccc4)C(=O)N[C@@H](Cc4csc5ccccc45)C(=O)N[C@@H](CCC(N)=O)C(N)=O)NC(=O)[C@H](CCC(N)=O)NC(=O)[C@H](Cc4ccccc4)NC(=O)[C@H](CC(C)C)NC(=O)[C@H](C)NC(=O)[C@H](CCC(=O)O)NC(=O)[C@H](CC(=O)O)NC3=O)NC1=O)CCCN2C(C)=O (stereo partly drawn) [I-658, Ac-PL3-Asp-Ile-B5-Asp-Glu-Ala-Leu-Phe-Gln-S8-Phe-BztA-Gln-NH2]
48 µM (≈ 92.4 µg/mL) | 430 nM | 430 nM | 2.903 | – | – | CC[C@H](C)[C@@H]1NC(=O)[C@H](CC(=O)O)NC(=O)[C@]2(CC=CCCCC3(CCCC=CCCCCCC[C@@](C)(C(=O)N[C@@H](Cc4ccccc4)C(=O)N[C@@H](Cc4csc5ccccc45)C(=O)N[C@@H](CCC(N)=O)C(N)=O)NC(=O)[C@H](CCC(N)=O)NC(=O)[C@H](Cc4ccccc4)NC(=O)[C@H](CC(C)C)NC(=O)[C@H](C)NC(=O)[C@H](CCC(=O)O)NC(=O)[C@H](CC(=O)O)NC3=O)NC1=O)CCCN2C(C)=O (stereo partly drawn) [I-659, Ac-PL3-Asp-Ile-B5-Asp-Glu-Ala-Leu-Phe-Gln-S8-Phe-BztA-Gln-NH2]
– | 544 nM | – | – | 45 µM (≈ 88.2 µg/mL) | 2.75 | CC[C@H](C)[C@@H]1NC(=O)[C@H](CC(=O)O)NC(=O)[C@]2(CC=CCCCC3(CCCC=CCCCCCC[C@@](C)(C(=O)N[C@@H](Cc4ccccc4)C(=O)N[C@@H](Cc4csc5ccccc45)C(=O)N[C@@H](CCC(N)=O)C(N)=O)NC(=O)[C@H](CCC(N)=O)NC(=O)[C@H](Cc4ccccc4)NC(=O)[C@H](Cc4ccccc4)NC(=O)[C@H](C)NC(=O)[C@H](CCC(=O)O)NC(=O)[C@H](CC(=O)O)NC3=O)NC1=O)CCCN2C(C)=O (stereo partly drawn) [I-660, Ac-PL3-Asp-Ile-B5-Asp-Glu-Ala-Phe-Phe-Gln-S8-Phe-BztA-Gln-NH2]
45 µM (≈ 85.5 µg/mL) | 45 nM | 45 nM | 2.099 | – | – | CC[C@H](C)[C@@H]1NC(=O)[C@H](CC(=O)O)NC(=O)[C@]2(CC=CCCCC3(CCCC=CCCCCCC[C@@](C)(C(=O)N[C@@H](Cc4ccccc4)C(=O)N[C@@H](Cc4csc5ccccc45)C(=O)N[C@@H](CCC(N)=O)C(N)=O)NC(=O)[C@H](CCC(N)=O)NC(=O)[C@H](Cc4ccccc4)NC(=O)[C@H](CO)NC(=O)[C@H](C)NC(=O)[C@H](CCC(=O)O)NC(=O)[C@H](CC(=O)O)NC3=O)NC1=O)CCCN2C(C)=O (stereo partly drawn) [I-661, Ac-PL3-Asp-Ile-B5-Asp-Glu-Ala-Ser-Phe-Gln-S8-Phe-BztA-Gln-NH2]
– | 43 nM | – | – | 42 µM (≈ 81.5 µg/mL) | 1.8 | CC[C@H](C)[C@@H]1NC(=O)[C@H](CC(=O)O)NC(=O)[C@]2(CC=CCCCC3(CCCC=CCCCCCC[C@@](C)(C(=O)N[C@@H](Cc4ccccc4)C(=O)N[C@@H](Cc4csc5ccccc45)C(=O)N[C@@H](CCC(N)=O)C(N)=O)NC(=O)[C@H](CCC(N)=O)NC(=O)[C@H](Cc4ccccc4)NC(=O)[C@H](CCC(N)=O)NC(=O)[C@H](C)NC(=O)[C@H](CCC(=O)O)NC(=O)[C@H](CC(=O)O)NC3=O)NC1=O)CCCN2C(C)=O (stereo partly drawn) [I-663, Ac-PL3-Asp-Ile-B5-Asp-Glu-Ala-Gln-Phe-Gln-S8-Phe-BztA-Gln-NH2]
45 µM (≈ 89.9 µg/mL) | 996 nM | 996 nM | 2.433 | – | – | CC[C@H](C)[C@@H]1NC(=O)[C@H](CC(=O)O)NC(=O)[C@]2(CC=CCCCC3(CCCC=CCCCCCC[C@@](C)(C(=O)N[C@@H](Cc4ccccc4)C(=O)N[C@@H](Cc4csc5ccccc45)C(=O)N[C@@H](CCC(N)=O)C(N)=O)NC(=O)[C@H](CCC(N)=O)NC(=O)[C@H](Cc4ccccc4)NC(=O)[C@H](Cc4c[nH]c5ccccc45)NC(=O)[C@H](C)NC(=O)[C@H](CCC(=O)O)NC(=O)[C@H](CC(=O)O)NC3=O)NC1=O)CCCN2C(C)=O (stereo partly drawn) [I-664, Ac-PL3-Asp-Ile-B5-Asp-Glu-Ala-Trp-Phe-Gln-S8-Phe-BztA-Gln-NH2]
47 µM (≈ 93.9 µg/mL) | 923 nM | 923 nM | 2.448 | – | – | CC[C@H](C)[C@@H]1NC(=O)[C@H](CC(=O)O)NC(=O)[C@]2(CC=CCCCC3(CCCC=CCCCCCC[C@@](C)(C(=O)N[C@@H](Cc4ccccc4)C(=O)N[C@@H](Cc4csc5ccccc45)C(=O)N[C@@H](CCC(N)=O)C(N)=O)NC(=O)[C@H](CCC(N)=O)NC(=O)[C@H](Cc4ccccc4)NC(=O)[C@H](Cc4c[nH]c5ccccc45)NC(=O)[C@H](C)NC(=O)[C@H](CCC(=O)O)NC(=O)[C@H](CC(=O)O)NC3=O)NC1=O)CCCN2C(C)=O (stereo partly drawn) [I-665, Ac-PL3-Asp-Ile-B5-Asp-Glu-Ala-Trp-Phe-Gln-S8-Phe-BztA-Gln-NH2]
47 µM (≈ 88.8 µg/mL) | 41 nM | 41 nM | 2.409 | – | – | CC(=O)N1CCC[C@]12CC=CCCCC1(CCCC=CCCCCCC[C@@](C)(C(=O)N[C@@H](Cc3ccsc3)C(=O)N[C@@H](Cc3csc4ccccc34)C(=O)N[C@@H](CCC(N)=O)C(N)=O)NC(=O)[C@H](CC(N)=O)NC(=O)[C@H](Cc3ccccc3)NC(=O)[C@H](C)NC(=O)[C@H](C)NC(=O)[C@H](CCC(=O)O)NC(=O)[C@H](CC(=O)O)NC1=O)NC(=O)[C@H](CC(C)(C)C)NC(=O)[C@H](CC(=O)O)NC2=O (stereo partly drawn) [I-682, Ac-PL3-Asp-Npg-B5-Asp-Glu-Ala-Ala-Phe-Asn-S8-3Thi-BztA-Gln-NH2]
43 µM (≈ 83.5 µg/mL) | 5 nM | – | 2.153 | – | – | CC(=O)N1CCC[C@]12CC=CCCCC1(CCCC=CCCCOC(=O)N3CC[C@@](C(=O)N[C@@H](Cc4ccsc4)C(=O)N[C@@H](Cc4csc5ccccc45)C(=O)N[C@@H](Cc4c[nH]cn4)C(N)=O)(C3)NC(=O)[C@H](CC(N)=O)NC(=O)[C@H](Cc3ccccc3)NC(=O)[C@H](C)NC(=O)[C@H](C)NC(=O)[C@H](CCC(=O)O)NC(=O)[C@H](CC(=O)O)NC1=O)NC(=O)[C@H](CC(C)(C)C)NC(=O)[C@H](CC(=O)O)NC2=O (stereo partly drawn) [I-698, Ac-PL3-Asp-Npg-B5-Asp-Glu-Ala-Ala-Phe-Asn-PyrS2-3Thi-BztA-His-NH2]

Source: patent US20240116985A1, “STAPLED PEPTIDES AND METHODS THEREOF” (priority 2020, published 2024)
